According to patent US20090131481A1, “Transcription Factor Modulating Compounds and Methods of Use Thereof” (Paratek Pharmaceuticals, Inc., published 2009):
Read-outs that look alike come from different tables or passages of the source.

Experiments:
P. aeruginosa = P. aeruginosa cytotoxicity whole cell assay (J774 cells, LDH release); conditions: relative to vehicle treated cells infected with wild type P. aeruginosa
Y. pseudotuberculosis = test: microbe, parasite or virus in culture; conditions: Yersinia pseudotuberculosis, J774, read-out: % Cytotoxicity
ExsA = biological target: T1, ExsA (Pseudomonas aeruginosa, UniProt P26993); test: Chemiluminescence-based ExsA-DNA binding assay; design: species or system P. aeruginosa; conditions: Table 7, cell-free system; read-out: ExsA EC50
T1 construct: made in house
T1 sequence (P26993 1-278): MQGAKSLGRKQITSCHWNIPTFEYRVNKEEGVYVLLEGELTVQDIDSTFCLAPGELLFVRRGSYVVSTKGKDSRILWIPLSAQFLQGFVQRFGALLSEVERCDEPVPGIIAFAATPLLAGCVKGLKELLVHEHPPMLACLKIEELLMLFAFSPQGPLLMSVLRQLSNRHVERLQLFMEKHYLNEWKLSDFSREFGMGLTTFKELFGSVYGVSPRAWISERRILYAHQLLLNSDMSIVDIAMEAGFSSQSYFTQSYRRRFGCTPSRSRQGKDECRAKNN

LcrF (VirF) = LcrF (VirF) (Yersinia pestis, UniProt P28808); test: biochemical; type: binding, Y. pseudotuberculosis
[1] = EC50 for inhibition of LcrF(VirF)-DNA binding
[2] = read-out: EC50 for inhibition of LcrF(VirF)-DNA binding

Chain of LcrF (VirF) (P28808 whole entry, looked up): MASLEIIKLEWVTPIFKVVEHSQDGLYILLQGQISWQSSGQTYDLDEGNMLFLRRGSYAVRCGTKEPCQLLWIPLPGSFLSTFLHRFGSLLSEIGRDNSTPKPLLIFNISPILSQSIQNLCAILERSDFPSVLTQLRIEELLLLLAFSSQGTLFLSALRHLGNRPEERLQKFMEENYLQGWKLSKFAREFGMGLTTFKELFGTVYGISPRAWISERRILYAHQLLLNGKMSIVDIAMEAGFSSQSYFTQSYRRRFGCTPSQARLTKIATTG

SMILES | Cytotoxicity at 50 μg/mL Pseudomonas (P. aeruginosa) | activity at 50 µg/mL (Y. pseudotuberculosis) [%] | EC50 (ExsA) [µM] | EC50 (LcrF (VirF); [1]) [µM] | EC50 (LcrF (VirF); [2]) [µM]
CN(C)CCN(C)c1cc2nc(-c3ccc(NC(=O)/C=C/c4ccc(F)cc4)cc3)n(O)c2cc1[N+](=O)[O-] [FQ] | ** (reduced P. aeruginosa cytotoxicity below 75% of untreated, wild type levels at 50 mg/mL) |  |  |  | 
COc1ccc(/C=C/C(=O)Nc2ccc(-c3nc4ccc([N+](=O)[O-])cc4n3O)cc2)cc1 [T] |  | < 75 | < 10 | < 10 | 
CC(=O)c1ccc(/C=C/C(=O)Nc2ccc(-c3nc4ccc(F)cc4n3O)cc2)cc1 [GR] | * (reduced P. aeruginosa cytotoxicity to 99-75% of untreated, wild type levels at 50 mg/mL) |  | 10 to 25 |  | 
O=C(Nc1ccc(-c2nc3ccc([N+](=O)[O-])cc3n2O)cc1)c1ccc(N2CCOCC2)cc1 [AD] |  |  | 10 to 25 |  | 
O=C(/C=C/c1ccc(O)cc1)Nc1ccc(-c2nc3ccc([N+](=O)[O-])cc3n2O)cc1 [AN] |  |  | 10 to 25 |  | 
CC(=O)c1ccc(/C=C/C(=O)Nc2ccc(-c3nc4ccc(C(C)=O)cc4n3O)cc2)cc1 [GI] | * (reduced P. aeruginosa cytotoxicity to 99-75% of untreated, wild type levels at 50 mg/mL) |  | > 25 |  | 
N#Cc1ccc2nc(-c3ccc(NC(=O)/C=C/c4ccc(-n5ccnc5)nc4)cc3)n(O)c2c1 [GV] | ** (reduced P. aeruginosa cytotoxicity below 75% of untreated, wild type levels at 50 mg/mL) |  | > 25 |  | 
O=C(/C=C/c1ccccc1)Nc1ccc(-c2nc3ccc([N+](=O)O)cc3n2O)cc1 [J] |  | < 75 | < 10 | < 10 | 
CCOP(=O)(COn1c(-c2ccc(NC(=O)c3ccc(F)cc3)cc2)nc2ccc([N+](=O)[O-])cc21)OCC [EG] |  | < 75 | > 25 |  | > 25
O=C(/C=C/c1ccc(C(F)(F)F)cc1)Nc1ccc(-c2nc3ccc([N+](=O)[O-])cc3n2O)cc1 [Y] |  |  | 10 to 25 | < 10 | 
O=C(CCc1ccc(F)cc1)Nc1ccc(-c2nc3ccc([N+](=O)[O-])cc3n2O)cc1 [L] |  |  | > 25 | > 25 | 
C/C(=C\c1ccccc1)C(=O)Nc1ccc(-c2nc3ccc([N+](=O)[O-])cc3n2O)cc1 [CT] |  | < 75 | > 25 | > 25 | 
O=C(O)COn1c(-c2ccc(NC(=O)c3ccc(F)cc3)cc2)nc2ccc([N+](=O)[O-])cc21 [DG, {2-[4-(4-Fluoro-benzoylamino)-phenyl]-6-nitro-benzoimidazol-1-yloxy}-acetic acid] |  | < 75 |  | > 25 | 
Cc1ccccc1C(=O)Nc1ccc(-c2nc3ccc([N+](=O)[O-])cc3n2O)cc1 [P] |  |  |  | > 25 | 
O=C(/C=C/c1ccc(F)c(F)c1)Nc1ccc(-c2nc3ccc([N+](=O)[O-])cc3n2O)cc1 [W] |  | < 75 | 10 to 25 | 10 to 25 | 
CC(C)c1ccc(/C=C/C(=O)Nc2ccc(-c3nc4ccc([N+](=O)[O-])cc4n3O)cc2)cc1 [CS] |  | < 75 | > 25 | > 25 | 
O=C(Nc1ccc(-c2nc3ccc([N+](=O)[O-])cc3n2O)cc1)c1ccccc1F [Q] |  |  |  | > 25 | 
CN1CCN(CCOc2cc3nc(-c4ccc(NC(=O)/C=C/c5ccc(F)cc5)cc4)n(O)c3cc2[N+](=O)[O-])CC1 [FR] | * (reduced P. aeruginosa cytotoxicity to 99-75% of untreated, wild type levels at 50 mg/mL) |  |  |  | 
O=C(O)c1ccc(C(=O)Nc2ccc(-c3nc4ccc([N+](=O)[O-])cc4n3O)cc2)cc1 [AI] |  |  | > 25 |  | 
O=C(Nc1ccc(-c2nc3ccc([N+](=O)[O-])cc3n2O)nc1)c1ccc(F)cc1 [DQ] |  | < 75 | > 25 | > 25 | 
CCc1cc(-c2nc3ccc([N+](=O)[O-])cc3n2O)ccc1NC(=O)c1ccc(F)cc1 [DK] |  | < 75 | > 25 | 10 to 25 | 
NC(=NO)c1ccc2nc(-c3ccc(NC(=O)c4ccc(F)cc4)cc3)n(O)c2c1 [CX] |  | < 75 | > 25 | > 25 | 
O=C(Nc1ccc(-c2nc3ccc([N+](=O)[O-])cc3n2OCP(=O)(O)O)cc1)c1ccc(F)cc1 [DV] |  | < 75 | > 25 |  | > 25

SMILES | Cytotoxicity at 50 μg/mL Pseudomonas (P. aeruginosa) | activity at 50 µg/mL (Y. pseudotuberculosis) [%] | EC50 (ExsA) [µM] | EC50 (LcrF (VirF); [1]) [µM] | EC50 (LcrF (VirF); [2]) [µM]
O=C(Cc1ccc(F)cc1)Nc1ccc(-c2nc3ccc([N+](=O)[O-])cc3n2O)cc1 [G] |  |  | > 25 | > 25 | 
O=C(NCc1ccc(-c2nc3ccc([N+](=O)[O-])cc3n2O)cc1)c1ccc(F)cc1 [Z] |  |  | > 25 | > 25 | 
O=[N+]([O-])c1ccc2nc(-c3ccc(C#Cc4ccc(F)cc4)cc3)n(O)c2c1 [R] |  |  | > 25 | > 25 | 
O=C(Nc1ccc2nc(-c3ccc([N+](=O)[O-])cc3)n(O)c2c1)c1ccc(F)cc1 [CW] |  | < 75 |  |  | > 25
O=C(Nc1ccc(-c2nc3ccc([N+](=O)[O-])cc3n2O)cc1)c1ccc2c(c1)CCCC2=O [EP] |  | < 75 | > 25 | > 25 | 
CC(=O)Nc1ccc(C(=O)Nc2ccc(-c3nc4ccc([N+](=O)[O-])cc4n3O)cc2)cc1 [AC] |  | < 75 | < 10 | 10 to 25 | 
O=C(Nc1ccc(-c2nc3ccc([N+](=O)[O-])cc3n2O)cc1)c1ccc(O)cc1 [AE] |  |  | 10 to 25 |  | 
CC(=NO)c1ccc2nc(-c3ccc(NC(=O)c4ccc(N(C)C)cc4)cc3)n(O)c2c1 [DF] |  | < 75 | > 25 | > 25 | 
CC(=O)c1ccc(C(=O)Nc2ccc(-c3nc4ccc([N+](=O)[O-])cc4n3O)cc2C)cc1 [ER] |  | < 75 |  |  | > 25
O=C(Nc1ccc(-c2nc3ccc([N+](=O)[O-])cc3n2O)cc1)c1ccc(-n2cccn2)cc1 [AB] |  |  | < 10 |  | 
CC(=O)c1ccc(/C=C/C(=O)Nc2ccc(-c3nc4cc(OCCN5CCN(C)CC5)c([N+](=O)[O-])cc4n3O)cc2)cc1 [FU] | ** (reduced P. aeruginosa cytotoxicity below 75% of untreated, wild type levels at 50 mg/mL) |  |  |  | 
O=C(Nc1ccc(-c2nc3ccc([N+](=O)[O-])cc3n2O)cc1)c1cccc(F)c1 [N] |  |  |  | > 25 | 
O=C(Nc1ccc(-c2nc3ccncc3n2O)cc1)c1ccc(F)cc1 [EJ] |  | < 75 | > 25 |  | > 25
CS(=O)(=O)c1ccc(C(=O)Nc2ccc(-c3nc4ccc([N+](=O)[O-])cc4n3O)cc2)cc1 [AG] |  |  | > 25 |  | 
NC(=O)c1ccc2nc(-c3ccc(NC(=O)c4ccc(F)cc4)cc3)n(O)c2c1 [DO, 2-[4-(4-Fluoro-benzoylamino)-phenyl]-3-hdroxy-3H-benzoimidazole-5-carboxylic acid amide] |  | < 75 | > 25 |  | > 25
O=C(/C=C/c1ccc(F)cc1)Nc1ccc(-c2nc3ccncc3n2O)cc1 [EK] |  | < 75 | > 25 |  | > 25
Cc1cc(-c2nc3ccc([N+](=O)[O-])cc3n2O)ccc1NC(=O)/C=C/c1ccc(F)cc1 [EN] |  | < 75 | > 25 | 10 to 25 | 
COc1ccccc1/C=C/C(=O)Nc1ccc(-c2nc3ccc([N+](=O)[O-])cc3n2O)cc1 [U] |  |  | < 10 | 10 to 25 | 
Cc1cccc(C(=O)Nc2ccc(-c3nc4ccc([N+](=O)[O-])cc4n3O)cc2)c1 [O] |  |  |  | > 25 | 
N#Cc1ccc(/C=C/C(=O)Nc2ccc(-c3nc4ccc([N+](=O)[O-])cc4n3O)cc2)cc1 [X] |  | < 75 | < 10 | 10 to 25 | 
NS(=O)(=O)c1ccc(C(=O)Nc2ccc(-c3nc4ccc([N+](=O)[O-])cc4n3O)cc2)cc1 [AF] |  |  | 10 to 25 |  | 
O=C(Nc1ccc(-c2nc3ccc([N+](=O)[O-])cc3n2O)cc1)c1ccc(-n2cncn2)cc1 [K] |  | < 75 | < 10 | 10 to 25 | 
O=C(Nc1ccc(-c2nc3ccc([N+](=O)[O-])cc3n2O)c(OCP(=O)(O)O)c1)c1ccc(F)cc1 [EC, [5-(4-Fluoro-benzoylamino)-2-(1-hydroxy-6-nitro-1H-benzoimidazol-2-yl)-phenoxymethyl]-phosphonic acid] |  | < 75 | > 25 |  | > 25
